Our source for the IC50 values is US20250011311A1, “AMIDO HETEROAROMATIC COMPOUNDS” (AstraZeneca AB, priority 2022, published 2025).

Assay [1] addresses recombinant 17bHSD4 (M1-N311) (Homo sapiens (Human), UniProt P51659). Description: In Vitro 17bHSD4 Enzyme Assay. The conditions noted are these: 40 nM 17bHSD4, 0.125 mM NAD, 15 μM Estradiol, 1.5 h; NADH fluorescence; read-out: 17HSD17b4 Enzyme assay IC50. The format is biochemical. As for the experimental part: In Vitro 17bHSD4 Enzyme Assay
10 concentration of compounds (0.2 μl) in DMSO was added to GREINER FLUOTRAC 200 384 well plate (781076) using ECHO dispensing (BECKMAN COULTER). 80 nl of 10 mM Estradiol (SIGMA, E8875) was added using Echo dispensing. The enzyme reaction was initiated by addition, using MULTIDROP COMBI dispensing (THERMO FISHER), of 40 μl of a mix containing recombinant 17bHSD4 (M1-N311) and NAD. Final assay conditions were 40 nM of 17bHSD4, 0.125 mM of NAD, 15 μM Estradiol and various concentrations of compound in buffer (5 mM EDTA (TEKNOVA E0306), 0.01% DDM (AFFYMETRIX D310) in 50 mM Tris-Cl, pH 7.4). After each addition plates were centrifuged for 1 min at 150×g (EPPENDORF, 5810R, A-4-81). NADH formation was measured by fluorescence intensity (FI) (Ex360/Em460) at time zero (to) and at 1.5 h (t1) in a PHERASTAR FSX (BMG LABTECH). FI for each sample was calculated as FI at t1 minus FI at t0.
(§1) […] […] was used for curve fitting and calculation of IC50 values.
(§2) Compound effect was calculated with the formula below;
(§3) where X represents the effect in the presence of test compound, min is DMSO and max is the maximum inhibition of enzyme using a known inhibitor as control.

Assay [2] addresses over expressed HSD17β13 in HEK293S cells (Homo sapiens (Human), UniProt Q7Z5P4). Kind of assay: In Vitro 17bHSD13 Cell Assay. In kind it is cell-based. The conditions noted are these: HEK293S cells over expressing HSD17β13; estradiol to estrone conversion, 18 h, LC-MS/MS; read-out: 17bHSD1713 Cell assay IC50. As for the experimental part:
In Vitro 17bHSD13 Cell Assay
Inhibition of 17bHSD13 was measured in a cell-based assay with over expressed HSD17β13 in HEK293S cells, measuring estradiol to estrone conversion by LCMS/MS.
Samples were analyzed using LC-MS/MS.
(§4) SCIEX LC-MS/MS system: Sample was injected with CTC analytical injector, SHIMATZU LC pumps LC20 and analysed on the SCIEX API 5000 LCMSMS system with the following settings. […] The mobile phases consist of A (water with 0.2% formic acid) and B (acetonitrile with 0.2% formic acid). The LC gradient profile is as follows: 50% B during 0 to 0.5 min, a linear increase to 100% B during 0.5 to 1 min, hold at 100% B during 1 to 1.6 min then back to 50% B from 1.6 to 2 min. […] Detection was performed on a API 5000 LC/MS/MS system with a triple quadrupole mass spectrometer, a TURBO V ion source, in multiple reaction monitoring (MRM) mode at positive polarity with APCI probe. […] The dwell times were 100 ms for each transition and a depolarization and collision energy of 100 and 40, respectively. Data from MS signals was using area under curve (AUC). Ratio=Estrone/(Estrone+Estradiol)
as §1, §2, §3

In assay [3] the target is over expressed HSD17β9 in HEK293S cells (Homo sapiens (Human), UniProt Q92781). Description: In Vitro 17bHSD9 Cell Assay. Conditions: HEK293S cells over expressing HSD17β9; retinol to retinal conversion, 18 h, LC-MS/MS; read-out: 17bHSD9 Cell assay IC50. In kind it is cell-based. As for the experimental part: In Vitro 17bHSD9 Cell Assay
Inhibition of 17bHSD9 was measured in a cell-based assay with over expressed HSD17β9 in HEK293S cells, measuring retinol to retinal conversion by LCMS/MS.
Cells were plated in 384 well plates (GREINER CELL culture plate 384w black/clear Poly-D-Lysine) at 10 K c/w in 30 μl of culture media (DMEM with GLUTAMAX plus 10% FBS). […] After 18 h of cell culturing for 20 μl of media was transferred using BRAVO dispensing robot (AGILENT) to a GREINER PP 384 well plate (781280) and 40 μl of 50% acetonitrile was added. Samples were analyzed using LC-MS/MS.
SCIEX LC-MS/MS system: Sample was injected with CTC analytical injector, SHIMATZU LC pumps LC20 and analysed on the SCIEX API 5000 LCMSMS system with the following settings. Samples were chromatographed on a WATERS, symmetry, C8, 3.5 μm, 2.1×50 mm) column at constant flow rate of 0.5 mL/min. The mobile phases consists of A (water with 0.2% formic acid) and B (acetonitrile with 0.2% formic acid). The LC gradient profile is as follows: 50% B during 0 to 0.1 min, a linear increase to 100% B during 0.1 to 0.8 min, hold at 100% B during 0.8 to 1.5 min then back to 50% B from 1.5 to 1.6 min and hold during run time. The run time was 2 min with retention times of approximately 1.54 and 1.62 min for Retinol and Retinal, respectively. Detection was performed on a API 5000 LC/MS/MS system with a triple quadrupole mass spectrometer, a TURBO V ion source, in multiple reaction monitoring (MRM) mode at positive polarity with ESI probe. The MRM pairs were m/z 269.3 to m/z 93.0 and m/z 285.2 to 161.0. for Retinol and Retinal, respectively. The dwell times were 100 ms for each transition and a depolarization and collision energy of 50 and 25, respectively. Data from MS signals was using area under curve (AUC). Ratio=Retinal/(Retinal+Retinol).
as §1, §2, §3

In assay [4] the target is recombinant 17bHSD13 (N2-K300) (Homo sapiens (Human), UniProt Q7Z5P4). Kind of assay: In Vitro 17bHSD13 Enzyme Assay. In kind it is biochemical. Conditions: 80 nM 17bHSD13, 0.5 mM NAD, 20 μM Estradiol, 2.5 h; estradiol to estrone by LC-MS/MS. As for the experimental part: In Vitro 17bHSD13 Enzyme Assay
The enzyme reaction was initiated by addition, using CERTUS-FLEX dispenser (GYGER), of 20 μl of substrate solution containing NAD (SIGMA, N1511) and Estradiol (SIGMA, E8875). […] Final assay conditions were 80 nM of 17bHSD13, 0.5 mM of NAD, 20 μM Estradiol and various concentrations of compound in buffer (5 mM EDTA (TEKNOVA E0306), 0.01% DDM (AFFYMETRIX D310) in 50 mM Tris-Cl, pH 7.4).
as §4, with “analyzed” for “analysed”
as §1, §2, §3

Chain of over expressed HSD17β9 in HEK293S cells (Q92781 whole entry): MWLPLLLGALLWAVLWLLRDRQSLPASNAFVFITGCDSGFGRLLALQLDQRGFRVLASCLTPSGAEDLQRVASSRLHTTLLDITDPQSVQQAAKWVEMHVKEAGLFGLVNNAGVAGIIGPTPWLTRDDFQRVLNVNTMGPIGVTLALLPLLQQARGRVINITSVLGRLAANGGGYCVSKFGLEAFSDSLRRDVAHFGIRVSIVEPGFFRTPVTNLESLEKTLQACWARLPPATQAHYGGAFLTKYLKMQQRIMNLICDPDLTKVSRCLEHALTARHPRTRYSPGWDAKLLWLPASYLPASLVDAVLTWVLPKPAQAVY
Chain of recombinant 17bHSD4 (M1-N311) (P51659 1-311): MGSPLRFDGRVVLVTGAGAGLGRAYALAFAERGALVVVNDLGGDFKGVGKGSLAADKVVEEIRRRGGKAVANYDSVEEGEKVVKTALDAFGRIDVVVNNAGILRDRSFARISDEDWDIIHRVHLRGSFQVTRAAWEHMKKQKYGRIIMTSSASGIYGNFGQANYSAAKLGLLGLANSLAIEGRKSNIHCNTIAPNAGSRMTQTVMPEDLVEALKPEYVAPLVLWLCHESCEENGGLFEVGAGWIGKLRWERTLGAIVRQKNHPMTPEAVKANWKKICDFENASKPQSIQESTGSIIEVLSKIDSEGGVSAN
Chain of recombinant 17bHSD13 (N2-K300) (Q7Z5P4 2-300): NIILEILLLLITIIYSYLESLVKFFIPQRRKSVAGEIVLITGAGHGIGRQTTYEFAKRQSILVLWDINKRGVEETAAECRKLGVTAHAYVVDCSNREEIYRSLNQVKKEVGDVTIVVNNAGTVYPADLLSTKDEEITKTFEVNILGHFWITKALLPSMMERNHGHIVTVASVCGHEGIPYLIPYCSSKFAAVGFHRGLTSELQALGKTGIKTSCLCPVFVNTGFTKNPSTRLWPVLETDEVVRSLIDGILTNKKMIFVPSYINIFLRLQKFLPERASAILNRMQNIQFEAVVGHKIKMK
Chain of over expressed HSD17β13 in HEK293S cells (Q7Z5P4 20-300): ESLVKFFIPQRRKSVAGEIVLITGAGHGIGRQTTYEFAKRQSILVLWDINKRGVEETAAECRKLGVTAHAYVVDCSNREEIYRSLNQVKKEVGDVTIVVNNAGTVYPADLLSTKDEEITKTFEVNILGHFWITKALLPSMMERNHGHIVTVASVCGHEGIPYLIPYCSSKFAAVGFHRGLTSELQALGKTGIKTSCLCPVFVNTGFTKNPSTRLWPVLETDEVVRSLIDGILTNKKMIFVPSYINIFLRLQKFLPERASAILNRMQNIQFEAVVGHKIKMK

As a reminder, the IC50 is the point on the concentration scale where inhibition reaches its midpoint. On to `CC1(C)COCCN1C(=O)c1noc(-c2cc(F)c(F)c(O)c2F)n1` [Example 48, (3,3-Dimethylmorpholino)(5-(2,4,5-trifluoro-3-hydroxyphenyl)-1,2,4-oxadiazol-3-yl)methanone], for which the IC50 in assay [1] was > 50 µM; in assay [2] it was 1.1 µM; in assay [3], > 50 µM; in assay [4], 0.388 µM.

As for `O=C(c1noc(-c2cc(F)c(F)c(O)c2F)n1)N1CCOC2(CCOCC2)C1` [Example 53, (1,9-Dioxa-4-azaspiro[5.5]undecan-4-yl)(5-(2,4,5-trifluoro-3-hydroxyphenyl)-1,2,4-oxadiazol-3-yl)methanone], the IC50 in assay [1] is > 50 µM; in assay [2], 5.61 µM; in assay [3] it was > 50 µM; in assay [4], 2.78 µM.

For the compound `N#Cc1c(C(=O)N2CCC(c3ccccc3)C2)noc1-c1ccc(F)c(O)c1` (stereo not shown) [Example 13, 5-(4-Fluoro-3-hydroxyphenyl)-3-(3-phenylpyrrolidine-1-carbonyl)isoxazole-4-carbonitrile], the concentration for half-maximal inhibition (IC50) in assay [1] was 15.6 µM; in assay [2], 0.46 µM; in assay [4], 0.04 µM.

For `COc1ccc(OC2CCN(C(=O)c3noc(-c4cc(F)c(F)c(O)c4F)n3)CC2)nc1` [Example 68, (4-((5-Methoxypyridin-2-yl)oxy)piperidin-1-yl)(5-(2,4,5-trifluoro-3-hydroxyphenyl)-1,2,4-oxadiazol-3-yl)methanone], the IC50 was determined as 26.3 µM in assay [1], 0.8 µM in assay [2], 30.4 µM in assay [3] and 0.044 µM in assay [4].

On to `O=C(c1noc(-c2cc(F)c(F)c(O)c2F)n1)N1CCO[C@@H](CF)C1` [Example 49, (R)-(2-(Fluoromethyl)morpholino)(5-(2,4,5-trifluoro-3-hydroxyphenyl)-1,2,4-oxadiazol-3-yl)methanone], for which the IC50 in assay [1] is > 50 µM; in assay [2], 0.54 µM; in assay [3] it was > 50 µM; in assay [4], 1.67 µM.

As to `O=C(c1noc(-c2cc(F)c(F)c(O)c2F)n1)N1CCc2ccccc2C1` [Example 64, (3,4-Dihydroisoquinolin-2(1H)-yl)(5-(2,4,5-trifluoro-3-hydroxyphenyl)-1,2,4-oxadiazol-3-yl)methanone], the half-maximal inhibitory concentration (IC50) in assay [1] amounted to 5.6 µM; in assay [2] it was 0.27 µM; in assay [3], 11.2 µM; in assay [4], 0.048 µM.

Turning to `O=C(c1noc(-c2cc(F)c(F)c(O)c2F)n1)N1CCN(c2nc3ccccc3o2)CC1` [Example 72, (4-(Benzo[d]oxazol-2-yl)piperazin-1-yl)(5-(2,4,5-trifluoro-3-hydroxyphenyl)-1,2,4-oxadiazol-3-yl)methanone], the IC50 is 19 µM in assay [1], 1.12 µM in assay [2], > 50 µM in assay [3] and 0.062 µM in assay [4].

For the compound `O=C(c1noc(-c2cc(F)c(F)c(O)c2F)n1)N1CCO[C@H](C(F)(F)F)C1` [Example 46, (S)-(5-(2,4,5-Trifluoro-3-hydroxyphenyl)-1,2,4-oxadiazol-3-yl)(2-(trifluoromethyl)morpholino)methanone], the IC50 in assay [1] was > 50 µM; in assay [2] it was 0.37 µM; in assay [3], 7.7 µM; in assay [4] it was 0.517 µM.

For `O=C(c1noc(-c2cc(F)c(F)c(O)c2F)n1)N1CCOC2(CCCC2)C1` [Example 45, (6-Oxa-9-azaspiro[4.5]decan-9-yl)(5-(2,4,5-trifluoro-3-hydroxyphenyl)-1,2,4-oxadiazol-3-yl)methanone], the IC50 in assay [1] was > 50 µM; in assay [2] it was 0.51 µM; in assay [3] it was 4.1 µM; in assay [4] it was 0.466 µM.

As for `C[C@@H]1CN(C(=O)c2noc(-c3cc(O)c(F)c(F)c3)n2)C[C@H](C)O1` [Example 116, (5-(3,4-Difluoro-5-hydroxyphenyl)-1,2,4-oxadiazol-3-yl)((2R,6S)-2,6-dimethylmorpholino)methanone], the IC50 in assay [1] is > 50 µM; in assay [2] it was 0.06 µM; in assay [3], > 50 µM; in assay [4], 0.117 µM.

Turning to `O=C(c1noc(-c2cc(F)c(F)c(O)c2F)n1)N1CCOC2(CCC2)C1` [Example 52, (5-Oxa-8-azaspiro[3.5]nonan-8-yl)(5-(2,4,5-trifluoro-3-hydroxyphenyl)-1,2,4-oxadiazol-3-yl)methanone], the IC50 in assay [1] was found to be 34.6 µM; in assay [2], 0.48 µM; in assay [3], 1.2 µM; in assay [4], 0.281 µM.

As to `O=C(c1cc(-c2cc(F)c(F)c(O)c2F)on1)N1CC[C@H](c2ccccc2)C1` [Example 104, (R)-(3-Phenylpyrrolidin-1-yl)(5-(2,4,5-trifluoro-3-hydroxyphenyl)isoxazol-3-yl)methanone], the IC50 was found to be 9.6 µM in assay [1], 0.54 µM in assay [2] and 0.057 µM in assay [4].

For `O=C(c1nnc(-c2ccc(F)c(O)c2)o1)N1CC[C@H](c2ccccc2)C1` [Example 1, (R)-(5-(4-Fluoro-3-hydroxyphenyl)-1,3,4-oxadiazol-2-yl)(3-phenylpyrrolidin-1-yl)methanone], the IC50 in assay [1] is 32.4 µM; in assay [2] it was 0.75 µM; in assay [4], 0.308 µM.
